This is an account of results in article PMC6954720, “Discovery of retinoic acid receptor agonists as proliferators of cardiac progenitor cells through a phenotypic screening approach” (Stem Cells Translational Medicine, 2019).

“Also recorded” adds a separate entry of the source. Read-outs that look alike come from different tables or passages of the source. Some results are limits rather than exact numbers.

The subject of assay [1] is human iPS-derived cardiac progenitor cells (CPCs). Nature of the assay: CPC proliferation assay (nuclear count). Format: cell-based. Particulars: primary screen, relative to basic FGF 100 ng/mL. As for the experimental part:
(§1) The CPC proliferation assay including image and data analysis was performed as previously described.14 Cardiac progenitor marker antibodies are listed in Table S3.
A library of 10 000 compounds was screened in singlicate at three concentrations (0.1, 1.0, and 10 μM) in the CPC proliferation assay. Each plate contained neutral controls, 0.1% DMSO and maximum controls, 100 ng/mL human basic fibroblast growth factor (FGF; Invitrogen, ThermoFisher Scientific, Waltham, Massachusetts). The data were analyzed using the Genedata Screener software (Genedata, Inc, Basel, Switzerland). […] Results were calculated using the following calculation method: compound % effect = 100 × [(X − min)/(max − min)], where X represents a normalized value for the compound based on the neutral and maximum controls.
The library was screened in three‐point concentration response (CR) at 0.1, 1.0, and 10 μM measuring proliferation of human induced pluripotent stem (iPS)‐derived CPCs with nuclear count, as measured by Hoechst staining, as the primary endpoint.

In assay [2] the target is T1, RARG (gamma) ligand binding domain (Homo sapiens, UniProt P13631).
T1 sequence (P13631 185-419 limits assumed): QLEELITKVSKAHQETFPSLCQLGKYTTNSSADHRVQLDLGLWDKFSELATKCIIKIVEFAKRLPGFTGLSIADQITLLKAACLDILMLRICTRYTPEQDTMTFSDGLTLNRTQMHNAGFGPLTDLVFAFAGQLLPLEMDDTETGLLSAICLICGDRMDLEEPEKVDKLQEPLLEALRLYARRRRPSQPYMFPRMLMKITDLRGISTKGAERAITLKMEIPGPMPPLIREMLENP
In words: RAR LBD-SRC1-2 coactivator peptide recruitment assay, agonist format, RARG. Format: biochemical. As for the experimental part: (§2) RAR ligand binding domain (LBD)‐SRC1‐2 coactivator peptide (NCOA1_677‐700 biotinylated) recruitment assays were established for the three RAR isotypes RARA (alpha), RARB (beta), and RARG (gamma) to determine relative potencies. […] A total of 0.4 μL of a fixed concentration range of test ligands dissolved in dimethyl sulphoxide (DMSO) was added to assay plates using an acoustic liquid dispenser. […] The raw data were transformed to % effect using the equation: compound % effect = 100 × [(X − min)/(max − min)], where X represents the effect in the presence of test compound and max and min are the effects in presence of the maximum and minimum controls, respectively.
(§3) The data were plotted to generate concentration‐response profiles and the concentration‐response curves were fit to the data using the four‐parameter logistic smart fit method in the Genedata Screener software (Genedata, Inc).

The test system of assay [3] is human iPS-derived cardiac progenitor cells (CPCs). In words: CPC proliferation assay (nuclear count). Format: cell-based.
Assay [4] has as its system RAR-responsive genes in CPCs. In words: RNA seq analysis of AM580-treated CPCs. It counts as cell-based, human. Particulars: 4-hour and 24-hour time points. On the procedure: CPC was seeded in fibronectin‐coated 24‐well plates, 150 000 cells in 0.5 mL media per well. […] Cell media were removed after 4 hours or 24 hours, and the cells were lysed for RNA preparation using the MagMax Total RNA Isolation kit. Triplicate samples were prepared for each treatment and time point. RNA integrity and concentration were analyzed on a fragment analyzer with the standard sensitivity RNA kit (Agilent, Santa Clara, California). RNA quality number was 8.2 on average.
A total of 1000 ng RNA per sample was processed with the TruSeq stranded mRNA kit (Illumina, San Diego, California) following the instructions from the manufacturer. […] Samples were pooled, diluted, and denatured according to Illumina's recommendations and sequenced on a NextSeq500 (High 150 cycles kit, reading 2 × 75 cycles). On average, samples had 13M reads with 93% of reads with >Q30.
RNA‐Seq data were processed using the bcbio pipeline version 0.9.7. Hisat2 version 2.0.2‐β aligner was used to align reads to the human genome version hg38. […] Differential expression analysis was performed on feature counts using DESeq2.32 Data quality was assessed using MultiQC.33 Genes with the lowest expression levels (less than five counts in at least two samples) were removed prior to differential expression estimation since they can be considered as nonexpressed.

Assay [5] concerns iPS-derived CPCs. Nature of the assay: Cardiac progenitor marker antibody staining of treated CPCs. Format: cell-based, human. To be noted: 40 nM, 3 days. On the procedure: as §1
A key requirement of the screen was that the expanded CPCs must retain their progenitor phenotype.
Figure 2 Cardiac progenitor cells (CPCs) retain progenitor markers after retinoic acid receptor agonist treatment. […] Larger images are representative merged images of Hoechst nuclear stain in blue and immunofluorescence of the indicated progenitor marker in green. Insets show the progenitor marker staining in gray scale at 3.3‐fold higher magnification. Scale bars: 50 μm

Assay [6] relates to human cardiac fibroblasts (CFs). In words: CF proliferation assay (nuclear count).
Description: To ensure that these molecules were not general proliferators of all cardiac cells, they were also tested in a human CF proliferation assay31 using nuclear count as the endpoint.
For assay [7], the target named is T2, RARB (beta) ligand binding domain (Homo sapiens, UniProt P10826).
T2 sequence (P10826 183-417 limits assumed): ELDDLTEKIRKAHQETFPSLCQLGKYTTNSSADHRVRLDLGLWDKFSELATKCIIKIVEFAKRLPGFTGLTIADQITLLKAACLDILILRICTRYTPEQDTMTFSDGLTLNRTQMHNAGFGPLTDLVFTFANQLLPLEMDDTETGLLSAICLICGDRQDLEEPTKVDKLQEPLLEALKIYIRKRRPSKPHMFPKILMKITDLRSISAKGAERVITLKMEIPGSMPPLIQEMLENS
In words: RAR LBD-SRC1-2 coactivator peptide recruitment assay, agonist format, RARB. It counts as biochemical. As for the experimental part: as §2, §3

Assay [8] has as its system HuES6 hPSC-derived cardiac progenitors. In words: HuES6-derived cardiac progenitors replated on day 5: cell number, RT-qPCR, immunocytochemistry. Particulars: for effect on cell proliferation / cell numbers, in words: 1.0 μM, day-5 replated progenitors, 4 days of exposure. Format: cell-based, human. As for the experimental part: Insulin and signaling agonists were omitted after 1 day. On days 2‐3, the nascent mesodermal cells were specified to the cardiac lineage using 0.2 μM C‐59 (R&D Tocris) supplementation. Culture medium was replaced daily.
Basal cardiac progenitor medium was composed of DMEM/F12 (ThermoFisher Scientific), insulin/transferrin/selenium supplement, 0.1% human serum albumin (Biological Industries Inc, Cromwell, Connecticut), 1× chemically defined lipids (ThermoFisher Scientific), and antibiotics. RAR agonists (1 μM) were added from the day of passaging the cells. Samples were harvested and monitored after 4 days of treatment.
Cell numbers per well were quantified following single‐cell dissociation with Accutase and using standard Neubauer counting chambers. RT‐qPCR and immunocytochemistry were performed according to standard procedures. RPL37A served as housekeeping gene for normalization.

The target of assay [9] is T3, RARA (alpha) ligand binding domain (Homo sapiens, UniProt P10276).
T3 sequence (P10276 183-417 limits assumed): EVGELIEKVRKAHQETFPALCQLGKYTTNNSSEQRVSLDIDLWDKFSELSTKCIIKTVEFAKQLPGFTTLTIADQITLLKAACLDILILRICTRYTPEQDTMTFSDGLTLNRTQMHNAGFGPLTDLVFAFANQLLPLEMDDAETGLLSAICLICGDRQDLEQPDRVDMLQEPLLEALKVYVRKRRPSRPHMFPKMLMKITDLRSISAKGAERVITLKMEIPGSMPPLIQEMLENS
In words: RAR LBD-SRC1-2 coactivator peptide recruitment assay, agonist format, RARA. It counts as biochemical. On the procedure: as §2, §3

Assay [10] relates to human umbilical vein endothelial cells (HUVECs). Further details: method as in PMID 24424466. Particulars: cited from earlier work.
Assay [11] has as its system murine CFs. Further details: method as in PMID 24424466. Particulars: cited from earlier work.
Assay [12] concerns human aortic SMCs. Further details: method as in PMID 24424466. Particulars: cited from earlier work.
Setting [13] is: Log Concentration M -6 (1.0 μM).
Setting [14] is: Log Concentration M -7 (0.1 μM).
[15] abbreviates: 10-point concentration response, read-out: EC50, CPC proliferation.
The mark [16] stands for this setting: iPSC-derived CPC proliferation, 10-point concentration response, read-out: CPC pEC50 (converted).

Take `CC1(C)CCC(C)(C)c2cc(C(=O)Nc3ccc(C(=O)O)cc3)ccc21` [AM580]: the entries for the “% Effect-normalised cell count” value in [1] (Log Concentration M -5 (10 μM)), in assay [1] (setting [13]) and in [1] (setting [14]) were 49.6%, 76.4% and 106%, respectively. Further, the “RARγ pEC50 (% top effect): % top effect” value in assay [2] came out at 99%. Moreover, the EC50 in [3] (setting [15]) is 5 nM; in [3] (setting [16]) it was 6.31 nM. For the same molecule, the “mRNA expression of RAR-responsive genes (RARB, RBP1, CRABP2, CYP26A1)” value in [4] is listed as “significant increase”. In assay [5], the “expression of cardiac progenitor markers Nkx2.5, Islet1, Gata4, PDGFRα after treatment” value is “retain expression”. Also, the “CF proliferation, result in words” value in assay [6] is “inactive”. Moreover, the “maximal effect (% top effect)” value in [7] amounted to 104%.

As to `CC1=C(/C=C/C(C)=C/C=C/C(C)=C/C(=O)O)C(C)(C)CCC1` [ATRA, all‐trans retinoic acid], the “terminal cardiac differentiation, in words” value in [8] (1 μM, day-5 replated cells, 4 days) is listed as “did not acquire a beating phenotype; also recorded: pronounced inhibition of terminal cardiac differentiation”. Besides, in [8] (1 μM, day-5 replated cells, 4 days, with the exception of ISL1), the “expression of cardiac progenitor markers vs untreated” value is “enhanced the expression of cardiac progenitor markers”. Besides, the entries for the “effect on cell proliferation / cell numbers, in words” value in [8] and in assay [8] (listed as RA) were “strong positive effects on cell proliferation” and “increase in cell numbers”, respectively. Also, the “% Effect-normalised cell count” value worked out at 59% in [1] (Log Concentration M -5 (10 μM)), 14% in assay [1] (setting [13]) and 14% in assay [1] (setting [14]). In addition, the “top effect (% of maximum control)” value in assay [9] is 103%. Moreover, the EC50 in assay [3] (10-point CR, variable between occasions, read-out: EC50 variation between occasions, lower end) was 50 nM; in assay [3] (10-point CR, variable between occasions, read-out: EC50 variation between occasions, upper end) it was over 10000 nM; in assay [3] (setting [15]), 56 nM; in assay [3] (setting [16]), 50.1 nM. For the same molecule, the “proliferation of HUVECs” value in assay [10] is recorded as “promoted the proliferation”. The “proliferation of murine CFs” value in [11] was “inhibited the proliferation”. Besides, the “CF proliferation, result in words” value in [6] was “inactive”. For the same molecule, the “proliferation of human aortic SMCs” value in assay [12] is “inhibited the proliferation”.
